Reference: ChEMBL document CHEMBL5608206, “Exploring monocyclic core: Discovery of pyrrol-2-one derivatives as a new series of potent MCHR1 antagonists with in vivo efficacy” (Eur J Med Chem, 2024)

Tests used:
in vitro [1] = settings: mouse, liver microsomes
in vitro [2] = settings: rat, liver microsomes
in vitro [3] = settings: human, liver microsomes

Q: Which results are given for `COc1cc(N2CC=C(Oc3ccc(C4CC4)cc3)C2=O)ccc1OCCO`?
A: logP (physchem): 3.3; remaining at 10 min, 3 µM (in vitro [1]): 74%; remaining at 10 min, 3 µM (in vitro [2]): 71%; remaining at 10 min, 3 µM (in vitro [3]): 87%
